Results: US11420976B2 (priority 2020, dated 2022)
Where two headings read alike, the source gives them in different places.

What was measured:
[1] = system: rHMPV-GFP (recombinant HMPV CAN97-83, MPV-GFP1); experiment: HMPV antiviral assay (eGFP fluorescence in Vero E6 cells); format: cell-based; settings: Vero C1008, 120 h, read-out: rHMPV-GFP EC50
Description: HMPV antiviral activity was evaluated using a recombinant version of HMPV CAN97-83 engineered to contain the coding sequence for enhanced green fluorescence protein (eGFP) in the 3′ end of the virus genome (MPV-GFP1, ViraTree). Vero E6 cells (ATCC #CCL-7) were seeded at a density of 12,000 cells/100 μL/well into 96-well cell plates (VENDOR) one day prior to the assay. On the day of screening, the cell culture medium was aspirated from the wells and cells were washed twice with serum-free Eagle's Modified Essential Medium (EMEM, ATCC #) containing 1% penicillin-streptomycin (Invitrogen) (SF-EMEM). Cell washes were performed by dispensing 100 μL SF-EMEM per well and immediately aspirating the wash medium from the well. Following the second wash step, serum-free OptiMEM (Invitrogen, Cat No.) (SF-OptiMEM) containing 0.5 μg/mL TPCK-Trypsin (VENDOR) and 1% penicillin-streptomycin was added to the cells at 50 μL/well. Compounds were added into the 96-well plates using a JANUS automated liquid handling system (VENDOR). Compounds were initially diluted 1:50 into an intermediate 96-well plate containing SF-OptiMEM prior to transfer to the assay plate (25 μL/well). Each of the test compounds was tested in duplicate wells at final concentrations starting from 8 μM or 2 μM using ½ stepwise dilutions for a total of 8 points. Virus infection was performed by preparing a working stock of MPV-GFP1 at a multiplicity of infection (MOI) equal to 0.05/25 μL and aliquoting 25 μL of virus inoculum to the compound and positive control wells. SF-OptiMEM was added (25 μL/well) to the appropriate wells to serve as a virus-free negative control for the assay. The final DMSO concentration of all wells is 0.5%. Plates were incubated at 32° C., 5% CO2 for 5 days. After 5 days incubation, eGFP fluorescence intensity was measured at […] using a Spectramax i3X plate reader (VENDOR). Percent viral inhibition was calculated using the following equation: y=[[…]]×100 Where XQ is the fluorescence intensity measured in a well containing recombinant MPV-GFP1-infected, compound-treated cells and XP is the average fluorescence intensity measured in the wells containing untreated cells infected with recombinant virus. EC50 values were then calculated by non-linear regression using a four parameter curve logistic equation. The curve fit model employed was XLFit Dose Response One Site Model 200: y=(A+(B/(1+((x/C)^D)))) Where A is the minimum y value, B is the maximum y value, C is the log EC50 value, and D is the slope factor. The EC50 of each compound is listed in Table 2 and EC50 ranges are as follows: A<0.2 μM; B≥0.2 μM.

[2] = system: Human RSV-A (“Long” strain); experiment: RSV-A assay (CPE, ATPlite readout in Hep-2 cells); format: cell-based; settings: human respiratory syncytial virus, 120 h, Hep-2 cells, MOI 0.1, 5-day incubation, ATPlite, read-out: Human RSV-A (“Long” strain) EC50
From the text: Hep-2 cells, (originally derived from tumors grown in irradiated-cortisonised weanling rats that had been injected with epidermoid carcinoma tissue from a person's larynx, but later found to be indistinguishable from HeLa cells by PCR DNA analysis), were used for the culturing of genotype A, “Long” strain RSV. Flasks were inoculated with RSV and viral stocks were collected once cytopathic effect (CPE) was greater than 90%. Viral stocks in 25% sucrose media were snap frozen using liquid nitrogen to increase viral stability. Viral stock titers were quantified by tissue culture infectious dose 50% (TCID50) using 8,000 cells per well and 3-fold viral dilutions across a 96-well plate, cultured for 4 days. Viral stock titers were also quantified by a plaque forming unit assay, as described elsewhere.
Following extensive parameter testing, the final assay is run as follows: Hep-2 cells are seeded into the inner 60 wells of a 96-well plate at 8,000 cells per well in a volume of 50 μL using Growth Media (DMEM without phenol red, 1% L-Glut, 1% Penn/Strep, 1% nonessential amino acids, 10% heat-inactivated FBS). 2-fold serial dilutions of control and test compounds are added to the wells in duplicate in a total volume of 25 μL. Viral stock is then added to the wells at a multiplicity of infection (MOI) of 0.1 in a volume of 25 μL, bringing the total volume of each well to 100 μL. The MOI is calculated using the PFU/mL, or TCID50 if unavailable. Each 96-well plate has a control column of 6 wells with cells and virus but no compound (negative control, max CPE), a column with cells but no compound or virus (positive control, minimum CPE), and a column with no cells or virus or compound (background plate/reagent control). The control wells with cells but no virus are given an additional […], of growth media containing an equal quantity of sucrose as those wells receiving the viral stock in order to keep consistent in media and volume conditions. The outer wells of the plate are filled with 125 μL of moat media (DMEM, 1% Penn/Strep) to act as a thermal and evaporative moat around the test wells. Following a 5-day incubation period, the plates are read using ATPlite (50 uL added per well), which quantifies the amount of ATP (a measure of cell health) present in each well. Assay plates are read using the Envision luminometer. […] EC50 ranges are as follows: A<0.2 μM; B≥0.2 μM.

[3] = system: HRSV; settings: high risk infants, prophylactic use; cited from earlier work

Compound | EC50 [1] [nM] | EC50 [2] [nM] | EC50 ([2]; in Homo sapiens) [nM] | effective in reducing hospitalizations [3] [%]
COc1cc(C(=O)NC[C@](C)(O)c2cc3c(c(-c4ccc(F)c(F)c4)n2)OC[C@@]3(N)C(F)(F)F)ccc1OC1CC1 [Example 22, N—((S)-2-((R)-3-amino-7-(3,4-difluorophenyl)-3-(trifluoromethyl)-2,3-dihydrofuro[2,3-c]pyridin-5-yl)-2-hydroxypropyl)-4-cyclopropoxy-3-methoxybenzamide] | < 200 | < 200 |  | 
COc1cc(C(=O)NC[C@](O)(c2cc3c(c(-c4ccc(F)c(F)c4)n2)OC[C@@]3(N)C(F)(F)F)C2CC2)ccc1OC1CC1 [Example 23, N—((S)-2-((R)-3-amino-7-(3,4-difluorophenyl)-3-(trifluoromethyl)-2,3-dihydrofuro[2,3-c]pyridin-5-yl)-2-cyclopropyl-2-hydroxyethyl)-4-cyclopropoxy-3-methoxybenzamide] | < 200 | < 200 |  | 
COc1cc(C(=O)NC[C@](C)(O)c2cc3c(c(-c4ccc(F)c(Cl)c4)n2)OC[C@@]3(N)C(F)(F)F)ccc1OC1CC1 [Example 24, N—((S)-2-((R)-3-amino-7-(3-chloro-4-fluorophenyl)-3-(trifluoromethyl)-2,3-dihydrofuro[2,3-c]pyridin-5-yl)-2-hydroxypropyl)-4-cyclopropoxy-3-methoxybenzamide] | < 200 | < 200 |  | 
COc1cc(C(=O)NC[C@](O)(c2cc3c(c(-c4ccc(F)c(Cl)c4)n2)OC[C@@]3(N)C(F)(F)F)C2CC2)ccc1OC1CC1 [Example 25, N—((S)-2-((R)-3-amino-7-(3-chloro-4-fluorophenyl)-3-(trifluoromethyl)-2,3-dihydrofuro[2,3-c]pyridin-5-yl)-2-cyclopropyl-2-hydroxyethyl)-4-cyclopropoxy-3-methoxybenzamide] | < 200 | < 200 |  | 
C[C@](O)(CNC(=O)c1ccc(OC2CC2)c(OC2CC2)c1)c1cc2c(c(-c3ccc(F)c(F)c3)n1)OC[C@@]2(N)C(F)(F)F [Example 26, N—((S)-2-((R)-3-amino-7-(3,4-difluorophenyl)-3-(trifluoromethyl)-2,3-dihydrofuro[2,3-c]pyridin-5-yl)-2-hydroxypropyl)-3,4-dicyclopropoxybenzamide] | < 200 | < 200 |  | 
N[C@@]1(C(F)(F)F)COc2c1cc([C@@](O)(CNC(=O)c1ccc(OC3CC3)c(OC3CC3)c1)C1CC1)nc2-c1ccc(F)c(F)c1 [Example 27, N—((S)-2-((R)-3-amino-7-(3,4-difluorophenyl)-3-(trifluoromethyl)-2,3-dihydrofuro[2,3-c]pyridin-5-yl)-2-cyclopropyl-2-hydroxyethyl)-3,4-dicyclopropoxybenzamide] | < 200 | < 200 |  | 
C[C@](O)(CNC(=O)c1ccc(OC2CC2)c(OC2CC2)c1)c1cc2c(c(-c3ccc(F)c(Cl)c3)n1)OC[C@@]2(N)C(F)(F)F [Example 28, N—((S)-2-((R)-3-amino-7-(3-chloro-4-fluorophenyl)-3-(trifluoromethyl)-2,3-dihydrofuro[2,3-c]pyridin-5-yl)-2-hydroxypropyl)-3,4-dicyclopropoxybenzamide] | < 200 | < 200 |  | 
N[C@@]1(C(F)(F)F)COc2c1cc([C@@](O)(CNC(=O)c1ccc(OC3CC3)c(OC3CC3)c1)C1CC1)nc2-c1ccc(F)c(Cl)c1 [Example 29] | > 200 |  | < 200 | 
N[C@@]1(C(F)(F)F)COc2c1cc([C@@](O)(CNC(=O)c1cc(OC3CC3)c3ncccc3c1)C1CC1)nc2-c1ccc(F)c(Cl)c1 [Example 30, N—((S)-2-((R)-3-amino-7-(3-chloro-4-fluorophenyl)-3-(trifluoromethyl)-2,3-dihydrofuro[2,3-c]pyridin-5-yl)-2-cyclopropyl-2-hydroxyethyl)-8-cyclopropoxyquinoline-6-carboxamide] | > 200 | < 200 |  | 
COc1cc(C(=O)NC[C@H](O)c2cc3c(c(-c4ccc(F)cc4)n2)OC[C@@]3(N)C(F)(F)F)ccc1OC1CC1 [Example 47] | > 200 | > 200 |  | 
COc1cc(C(=O)NCC(C)c2cc3c(c(-c4ccc(F)c(F)c4)n2)OC[C@@]3(N)C(F)(F)F)ccc1OC1CC1 (stereo partly drawn) [Example 48] | > 200 | > 200 |  | 
COC[C@](O)(CNC(=O)c1ccc(OC2CC2)c(OC)c1)c1cc2c(c(-c3ccc(F)cc3)n1)OC[C@@]2(N)C(F)(F)F [Example 49, N—((S)-2-((R)-3-amino-7-(4-fluorophenyl)-3-(trifluoromethyl)-2,3-dihydrofuro[2,3-c]pyridin-5-yl)-2-hydroxy-3-methoxypropyl)-4-cyclopropoxy-3-methoxybenzamide] | > 200 | < 200 |  | 
COc1cc(C(=O)NC[C@@](O)(CO)c2cc3c(c(-c4ccc(F)cc4)n2)OC[C@@]3(N)C(F)(F)F)ccc1OC1CC1 [Example 51, N—((S)-2-((R)-3-amino-7-(4-fluorophenyl)-3-(trifluoromethyl)-2,3-dihydrofuro[2,3-c]pyridin-5-yl)-2,3-dihydroxypropyl)-4-cyclopropoxy-3-methoxybenzamide] | > 200 | < 200 |  | 
N[C@@]1(C(F)(F)F)COc2c1cc([C@@](O)(CNC(=O)c1cc(OC3CC3)c3nn(C4CC4)cc3c1)C1CC1)nc2-c1ccc(F)cc1 [Example 55c, N—((S)-2-((R)-3-amino-7-(4-fluorophenyl)-3-(trifluoromethyl)-2,3-dihydrofuro[2,3-c]pyridin-5-yl)-2-cyclopropyl-2-hydroxyethyl)-7-cyclopropoxy-2-cyclopropyl-2H-indazole-5-carboxamide] | < 200 | < 200 |  | 
N[C@@]1(C(F)(F)F)COc2c1cc([C@@](O)(CNC(=O)c1cc(OC3CC3)c3nn(C4CC4)cc3c1)C1CC1)nc2-c1ccc(F)c(Cl)c1 [Example 55d, N—((S)-2-((R)-3-amino-7-(3-chloro-4-fluorophenyl)-3-(trifluoromethyl)-2,3-dihydrofuro[2,3-c]pyridin-5-yl)-2-cyclopropyl-2-hydroxyethyl)-7-cyclopropoxy-2-cyclopropyl-2H-indazole-5-carboxamide] | < 200 | < 200 |  | 
Cn1cc2cc(C(=O)NC[C@](O)(c3cc4c(c(-c5ccc(F)cc5)n3)OC[C@@]4(N)C(F)(F)F)C3CC3)cc(OC3CC3)c2n1 [Example 66, N—((S)-2-((R)-3-amino-7-(4-fluorophenyl)-3-(trifluoromethyl)-2,3-dihydrofuro[2,3-c]pyridin-5-yl)-2-cyclopropyl-2-hydroxyethyl)-7-cyclopropoxy-2-methyl-2H-indazole-5-carboxamide] | < 200 | < 200 |  | 
Palivizumab |  |  |  | 60
